Source: ChEMBL document CHEMBL4507289, “Data for DCP probe GSM1” (2021)

Experiments:
[1] = system: Tyrosine-protein kinase ABL1 (Homo sapiens), P00519 [E255K]; conditions: Compound concentration 1000.0 nM
[2] = system: Tyrosine-protein kinase ABL1 (Homo sapiens), P00519 [H396P]; conditions: Compound concentration 1000.0 nM
[3] = system: ALK tyrosine kinase receptor (Homo sapiens), Q9UM73 [C1156Y]; conditions: Compound concentration 1000.0 nM
[4] = target: Cyclin-dependent kinase 13 (Homo sapiens) (UniProt Q14004); conditions: Compound concentration 1000.0 nM
[5] = target: Cyclin-dependent kinase 2 (Homo sapiens) (UniProt P24941); conditions: Compound concentration 1000.0 nM
[6] = target: Cyclin-dependent kinase 4 (Homo sapiens) (UniProt P11802); conditions: Compound concentration 1000.0 nM
[7] = target: Casein kinase I isoform epsilon (Homo sapiens) (UniProt P49674); conditions: Compound concentration 1000.0 nM
[8] = target: Casein kinase II subunit alpha (Homo sapiens) (UniProt P68400); conditions: Compound concentration 1000.0 nM
[9] = target: Serine/threonine-protein kinase MRCK gamma (Homo sapiens) (UniProt Q6DT37); conditions: Compound concentration 1000.0 nM
[10] = target: Dual specificity tyrosine-phosphorylation-regulated kinase 1B (Homo sapiens) (UniProt Q9Y463); conditions: Compound concentration 1000.0 nM
Dual specificity tyrosine-phosphorylation-regulated kinase 1B (Homo sapiens), sequence (Q9Y463 whole entry, looked up): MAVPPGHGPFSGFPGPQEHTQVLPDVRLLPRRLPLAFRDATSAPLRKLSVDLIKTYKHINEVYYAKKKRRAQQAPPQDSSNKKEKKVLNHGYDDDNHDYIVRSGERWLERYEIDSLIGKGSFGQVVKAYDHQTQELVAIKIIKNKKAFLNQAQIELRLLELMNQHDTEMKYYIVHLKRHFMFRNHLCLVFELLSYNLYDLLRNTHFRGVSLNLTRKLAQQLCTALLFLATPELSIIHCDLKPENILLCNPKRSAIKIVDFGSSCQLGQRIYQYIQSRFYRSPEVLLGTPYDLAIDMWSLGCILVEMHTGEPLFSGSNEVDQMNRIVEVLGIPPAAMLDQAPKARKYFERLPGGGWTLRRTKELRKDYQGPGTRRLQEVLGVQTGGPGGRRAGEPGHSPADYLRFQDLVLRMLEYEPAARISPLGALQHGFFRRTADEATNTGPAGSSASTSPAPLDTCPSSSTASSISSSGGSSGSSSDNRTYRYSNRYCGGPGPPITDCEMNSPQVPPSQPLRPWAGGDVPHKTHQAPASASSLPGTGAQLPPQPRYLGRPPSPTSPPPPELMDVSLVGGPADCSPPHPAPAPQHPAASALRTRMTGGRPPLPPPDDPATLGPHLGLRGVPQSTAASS

[11] = system: Epidermal growth factor receptor (Homo sapiens), P00533 [L858R]; conditions: Compound concentration 1000.0 nM
[12] = target: Ephrin type-A receptor 5 (Homo sapiens) (UniProt P54756); conditions: Compound concentration 1000.0 nM
[13] = target: Tyrosine-protein kinase Fes/Fps (Homo sapiens) (UniProt P07332); conditions: Compound concentration 1000.0 nM
[14] = system: Receptor-type tyrosine-protein kinase FLT3 (Homo sapiens), P36888 [D835Y]; conditions: Compound concentration 1000.0 nM
[15] = target: Rhodopsin kinase GRK1 (Homo sapiens) (UniProt Q15835); conditions: Compound concentration 1000.0 nM
[16] = target: Tyrosine-protein kinase HCK (Homo sapiens) (UniProt P08631); conditions: Compound concentration 1000.0 nM
[17] = system: Mast/stem cell growth factor receptor Kit (Homo sapiens), P10721 [D816H]; conditions: Compound concentration 1000.0 nM
[18] = target: Leucine-rich repeat serine/threonine-protein kinase 2 (Homo sapiens) (UniProt Q5S007); conditions: Compound concentration 1000.0 nM
[19] = system: Leucine-rich repeat serine/threonine-protein kinase 2 (Homo sapiens), Q5S007 [G2019S]; conditions: Compound concentration 1000.0 nM
[20] = target: Mitogen-activated protein kinase kinase kinase 13 (Homo sapiens) (UniProt O43283); conditions: Compound concentration 1000.0 nM
[21] = target: Mitogen-activated protein kinase kinase kinase 4 (Homo sapiens) (UniProt Q9Y6R4); conditions: Compound concentration 1000.0 nM
[22] = target: Mitogen-activated protein kinase kinase kinase 11 (Homo sapiens) (UniProt Q16584); conditions: Compound concentration 1000.0 nM
Mitogen-activated protein kinase kinase kinase 11 (Homo sapiens), sequence (Q16584 whole entry, looked up): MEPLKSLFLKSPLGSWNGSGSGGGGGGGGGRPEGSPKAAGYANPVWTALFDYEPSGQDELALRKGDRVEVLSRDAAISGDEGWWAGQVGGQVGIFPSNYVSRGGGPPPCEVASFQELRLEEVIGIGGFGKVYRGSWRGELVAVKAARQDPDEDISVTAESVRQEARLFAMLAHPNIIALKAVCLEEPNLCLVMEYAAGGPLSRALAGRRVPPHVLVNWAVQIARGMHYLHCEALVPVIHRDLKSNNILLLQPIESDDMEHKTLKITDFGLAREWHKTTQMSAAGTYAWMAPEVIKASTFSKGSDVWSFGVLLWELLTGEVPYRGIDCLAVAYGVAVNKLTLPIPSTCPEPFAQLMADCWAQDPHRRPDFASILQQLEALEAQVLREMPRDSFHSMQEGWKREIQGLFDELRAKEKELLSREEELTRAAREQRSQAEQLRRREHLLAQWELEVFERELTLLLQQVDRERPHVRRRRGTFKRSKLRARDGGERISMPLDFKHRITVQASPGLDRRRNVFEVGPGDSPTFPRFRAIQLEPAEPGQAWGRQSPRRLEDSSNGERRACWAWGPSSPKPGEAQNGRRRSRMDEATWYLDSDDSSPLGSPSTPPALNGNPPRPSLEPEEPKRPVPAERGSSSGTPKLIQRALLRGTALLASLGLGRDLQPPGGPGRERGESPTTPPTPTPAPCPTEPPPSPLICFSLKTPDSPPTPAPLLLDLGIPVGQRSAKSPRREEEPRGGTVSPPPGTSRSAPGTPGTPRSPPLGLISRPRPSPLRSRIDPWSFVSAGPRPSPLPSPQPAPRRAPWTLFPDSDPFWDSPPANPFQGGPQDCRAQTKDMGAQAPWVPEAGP

[23] = target: Myosin light chain kinase family member 4 (Homo sapiens) (UniProt Q86YV6); conditions: Compound concentration 1000.0 nM
[24] = target: Serine/threonine-protein kinase Nek2 (Homo sapiens) (UniProt P51955); conditions: Compound concentration 1000.0 nM
Serine/threonine-protein kinase Nek2 (Homo sapiens), sequence (P51955 whole entry): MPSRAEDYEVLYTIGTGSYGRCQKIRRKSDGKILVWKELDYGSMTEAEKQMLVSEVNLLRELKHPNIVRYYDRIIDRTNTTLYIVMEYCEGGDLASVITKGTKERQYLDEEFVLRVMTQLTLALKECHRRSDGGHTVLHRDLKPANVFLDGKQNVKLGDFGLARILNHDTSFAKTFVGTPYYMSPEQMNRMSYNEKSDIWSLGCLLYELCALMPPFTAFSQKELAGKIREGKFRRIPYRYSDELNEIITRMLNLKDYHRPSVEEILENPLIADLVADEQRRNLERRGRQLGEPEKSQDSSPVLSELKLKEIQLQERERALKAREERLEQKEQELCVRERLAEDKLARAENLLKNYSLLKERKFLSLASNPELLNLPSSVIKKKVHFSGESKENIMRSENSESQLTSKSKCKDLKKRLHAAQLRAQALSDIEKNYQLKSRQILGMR

[25] = target: Serine/threonine-protein kinase Nek7 (Homo sapiens) (UniProt Q8TDX7); conditions: Compound concentration 1000.0 nM
[26] = target: Serine/threonine-protein kinase NLK (Homo sapiens) (UniProt Q9UBE8); conditions: Compound concentration 1000.0 nM
Serine/threonine-protein kinase NLK (Homo sapiens), sequence (Q9UBE8 whole entry): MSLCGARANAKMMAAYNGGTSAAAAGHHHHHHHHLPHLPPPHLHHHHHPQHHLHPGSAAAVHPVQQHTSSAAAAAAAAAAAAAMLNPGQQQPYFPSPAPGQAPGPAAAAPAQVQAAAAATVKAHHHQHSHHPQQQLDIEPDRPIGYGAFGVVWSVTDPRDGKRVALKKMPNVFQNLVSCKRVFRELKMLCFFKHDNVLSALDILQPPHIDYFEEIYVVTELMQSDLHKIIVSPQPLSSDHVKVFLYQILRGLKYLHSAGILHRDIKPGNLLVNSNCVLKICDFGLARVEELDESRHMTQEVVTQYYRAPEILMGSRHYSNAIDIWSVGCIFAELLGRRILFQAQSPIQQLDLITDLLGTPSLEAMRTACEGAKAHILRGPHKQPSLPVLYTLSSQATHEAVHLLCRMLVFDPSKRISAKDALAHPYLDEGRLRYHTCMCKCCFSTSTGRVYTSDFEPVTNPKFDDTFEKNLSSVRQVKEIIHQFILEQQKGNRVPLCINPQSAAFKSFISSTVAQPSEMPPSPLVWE

[27] = target: Serine/threonine-protein kinase PAK 5 (Homo sapiens) (UniProt Q9P286); conditions: Compound concentration 1000.0 nM
[28] = target: Cyclin-dependent kinase 14 (Homo sapiens) (UniProt O94921); conditions: Compound concentration 1000.0 nM
[29] = target: Phosphorylase b kinase regulatory subunit alpha, liver isoform (Homo sapiens) (UniProt P46019); conditions: Compound concentration 1000.0 nM
[30] = target: Phosphatidylinositol 4-kinase beta (Homo sapiens) (UniProt Q9UBF8); conditions: Compound concentration 1000.0 nM
[31] = target: Serine/threonine-protein kinase PLK2 (Homo sapiens) (UniProt Q9NYY3); conditions: Compound concentration 1000.0 nM
Serine/threonine-protein kinase PLK2 (Homo sapiens), sequence (Q9NYY3 whole entry, looked up): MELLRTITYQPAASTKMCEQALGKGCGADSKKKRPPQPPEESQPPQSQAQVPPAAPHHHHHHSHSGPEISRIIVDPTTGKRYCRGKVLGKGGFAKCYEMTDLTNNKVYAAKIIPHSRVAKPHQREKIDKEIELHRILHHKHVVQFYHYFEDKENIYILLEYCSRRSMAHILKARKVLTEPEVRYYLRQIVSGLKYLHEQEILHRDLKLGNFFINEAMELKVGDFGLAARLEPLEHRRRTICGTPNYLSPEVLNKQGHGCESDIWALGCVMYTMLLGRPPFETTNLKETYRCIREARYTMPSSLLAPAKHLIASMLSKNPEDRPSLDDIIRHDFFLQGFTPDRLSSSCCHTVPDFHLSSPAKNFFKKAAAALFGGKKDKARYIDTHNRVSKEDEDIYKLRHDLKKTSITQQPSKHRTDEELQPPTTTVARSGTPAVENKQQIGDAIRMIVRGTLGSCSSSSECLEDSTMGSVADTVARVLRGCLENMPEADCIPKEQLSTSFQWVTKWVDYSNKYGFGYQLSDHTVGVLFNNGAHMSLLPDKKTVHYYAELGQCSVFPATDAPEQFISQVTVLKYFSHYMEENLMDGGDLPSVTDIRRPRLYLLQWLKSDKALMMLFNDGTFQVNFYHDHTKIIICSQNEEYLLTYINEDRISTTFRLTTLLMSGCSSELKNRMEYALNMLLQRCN

[32] = target: Serine/threonine-protein kinase D3 (Homo sapiens) (UniProt O94806); conditions: Compound concentration 1000.0 nM
Serine/threonine-protein kinase D3 (Homo sapiens), sequence (O94806 whole entry): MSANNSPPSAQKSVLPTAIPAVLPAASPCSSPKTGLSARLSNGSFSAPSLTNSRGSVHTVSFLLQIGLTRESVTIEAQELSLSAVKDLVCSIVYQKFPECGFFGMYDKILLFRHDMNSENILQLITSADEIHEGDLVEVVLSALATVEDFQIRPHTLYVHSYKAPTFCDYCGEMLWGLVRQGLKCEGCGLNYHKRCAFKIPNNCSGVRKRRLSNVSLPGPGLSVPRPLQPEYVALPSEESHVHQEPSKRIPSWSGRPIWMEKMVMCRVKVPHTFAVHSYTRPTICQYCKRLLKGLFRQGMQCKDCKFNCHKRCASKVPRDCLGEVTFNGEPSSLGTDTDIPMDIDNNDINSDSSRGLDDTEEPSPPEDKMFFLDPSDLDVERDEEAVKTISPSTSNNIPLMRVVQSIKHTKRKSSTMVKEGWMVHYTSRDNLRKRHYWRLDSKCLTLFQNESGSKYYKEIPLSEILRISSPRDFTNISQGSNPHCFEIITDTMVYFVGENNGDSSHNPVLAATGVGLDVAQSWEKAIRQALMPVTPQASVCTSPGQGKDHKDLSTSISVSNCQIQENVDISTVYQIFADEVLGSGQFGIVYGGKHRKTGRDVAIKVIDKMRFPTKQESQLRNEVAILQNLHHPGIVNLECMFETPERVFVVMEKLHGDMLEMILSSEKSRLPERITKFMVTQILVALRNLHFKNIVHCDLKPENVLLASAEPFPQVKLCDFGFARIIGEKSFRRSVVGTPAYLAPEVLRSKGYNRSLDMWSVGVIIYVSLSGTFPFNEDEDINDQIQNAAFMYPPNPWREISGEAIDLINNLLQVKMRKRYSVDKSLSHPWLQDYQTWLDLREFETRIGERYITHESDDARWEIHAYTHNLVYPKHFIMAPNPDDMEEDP

[33] = system: Proto-oncogene tyrosine-protein kinase receptor Ret (Homo sapiens), P07949 [V804M]; conditions: Compound concentration 1000.0 nM
[34] = target: Rho-associated protein kinase 2 (Homo sapiens) (UniProt O75116); conditions: Compound concentration 1000.0 nM
[35] = target: Uncharacterized serine/threonine-protein kinase SBK3 (Homo sapiens) (UniProt P0C264); conditions: Compound concentration 1000.0 nM
[36] = target: STE20-like serine/threonine-protein kinase (Homo sapiens) (UniProt Q9H2G2); conditions: Compound concentration 1000.0 nM
[37] = target: SRSF protein kinase 2 (Homo sapiens) (UniProt P78362); conditions: Compound concentration 1000.0 nM
[38] = target: Tyrosine-protein kinase SYK (Homo sapiens) (UniProt P43405); conditions: Compound concentration 1000.0 nM
[39] = target: Mitogen-activated protein kinase kinase kinase 7 (Homo sapiens) (UniProt O43318); conditions: Compound concentration 1000.0 nM
[40] = target: TGF-beta receptor type-2 (Homo sapiens) (UniProt P37173); conditions: Compound concentration 1000.0 nM
[41] = target: Testis-specific serine/threonine-protein kinase 3 (Homo sapiens) (UniProt Q96PN8); conditions: Compound concentration 1000.0 nM
Testis-specific serine/threonine-protein kinase 3 (Homo sapiens), sequence (Q96PN8 whole entry): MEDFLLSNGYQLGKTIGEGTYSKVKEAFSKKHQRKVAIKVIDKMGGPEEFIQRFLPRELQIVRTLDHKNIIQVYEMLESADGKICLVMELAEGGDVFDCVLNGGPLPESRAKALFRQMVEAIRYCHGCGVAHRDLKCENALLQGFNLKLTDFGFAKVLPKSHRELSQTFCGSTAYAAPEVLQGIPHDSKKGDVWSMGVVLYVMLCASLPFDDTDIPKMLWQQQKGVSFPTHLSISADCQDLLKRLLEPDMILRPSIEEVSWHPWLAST

[42] = target: Phosphatidylinositol 3-kinase catalytic subunit type 3 (Homo sapiens) (UniProt Q8NEB9); conditions: Compound concentration 1000.0 nM
[43] = target: Sodium-dependent serotonin transporter (Homo sapiens, UniProt P31645); conditions: Compound concentration 10.0 uM
[44] = target: Sodium-dependent dopamine transporter (Homo sapiens, UniProt Q01959); conditions: Compound concentration 10.0 uM
Sodium-dependent dopamine transporter, sequence (Q01959 whole entry): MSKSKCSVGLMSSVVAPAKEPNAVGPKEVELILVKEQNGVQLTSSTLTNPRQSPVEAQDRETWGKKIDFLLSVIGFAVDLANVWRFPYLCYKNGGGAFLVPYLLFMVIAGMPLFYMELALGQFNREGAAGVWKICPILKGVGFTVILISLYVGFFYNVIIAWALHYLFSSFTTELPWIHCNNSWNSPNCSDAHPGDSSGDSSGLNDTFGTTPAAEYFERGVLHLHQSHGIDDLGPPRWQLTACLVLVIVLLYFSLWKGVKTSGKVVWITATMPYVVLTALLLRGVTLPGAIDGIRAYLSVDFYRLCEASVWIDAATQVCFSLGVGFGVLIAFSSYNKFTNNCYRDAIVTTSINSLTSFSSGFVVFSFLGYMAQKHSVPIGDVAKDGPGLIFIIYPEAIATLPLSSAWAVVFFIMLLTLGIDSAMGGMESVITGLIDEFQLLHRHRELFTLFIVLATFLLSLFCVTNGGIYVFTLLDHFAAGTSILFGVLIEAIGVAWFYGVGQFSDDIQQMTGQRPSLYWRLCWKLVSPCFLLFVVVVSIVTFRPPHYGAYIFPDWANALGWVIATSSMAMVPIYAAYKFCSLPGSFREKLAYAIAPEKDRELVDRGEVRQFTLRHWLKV

[45] = target: Delta-type opioid receptor (Homo sapiens) (UniProt P41143); conditions: Compound concentration 10.0 uM

COc1cc(-c2cn([C@H]3CCc4ccccc4N(CC(F)(F)F)C3=O)nn2)ccc1-n1ccc(C)n1
residual activity [1]: 96%
residual activity [2]: 70%
residual activity [3]: 100%
residual activity [4]: 100%
residual activity [5]: 100%
residual activity [6]: 90%
residual activity [7]: 100%
residual activity [8]: 81%
residual activity [9]: 100%
residual activity [10]: 100%
residual activity [11]: 97%
residual activity [12]: 100%
residual activity [13]: 100%
residual activity [14]: 92%
residual activity [15]: 80%
residual activity [16]: 100%
residual activity [17]: 75%
residual activity [18]: 54%
residual activity [19]: 100%
residual activity [20]: 84%
residual activity [21]: 85%
residual activity [22]: 100%
residual activity [23]: 100%
residual activity [24]: 100%
residual activity [25]: 100%
residual activity [26]: 100%
residual activity [27]: 96%
residual activity [28]: 100%
residual activity [29]: 100%
residual activity [30]: 87%
residual activity [31]: 100%
residual activity [32]: 100%
residual activity [33]: 100%
residual activity [34]: 100%
residual activity [35]: 92%
residual activity [36]: 100%
residual activity [37]: 81%
residual activity [38]: 100%
residual activity [39]: 86%
residual activity [40]: 100%
residual activity [41]: 100%
residual activity [42]: 100%
inhibition [43]: 90.6%
inhibition [44]: 5.21%
inhibition [45]: 16.7%

COc1cc(-c2cn([C@H]3CCc4c(F)cccc4N(CC(F)(F)F)C3=O)nn2)ccc1-n1cnc(C)c1
residual activity [1]: 100%
residual activity [2]: 100%
residual activity [3]: 100%
residual activity [4]: 99%
residual activity [5]: 100%
residual activity [6]: 100%
residual activity [7]: 80%
residual activity [8]: 100%
residual activity [9]: 100%
residual activity [10]: 100%
residual activity [11]: 100%
residual activity [12]: 100%
residual activity [13]: 100%
residual activity [14]: 86%
residual activity [15]: 99%
residual activity [16]: 100%
residual activity [17]: 67%
residual activity [18]: 57%
residual activity [19]: 100%
residual activity [20]: 75%
residual activity [21]: 94%
residual activity [22]: 100%
residual activity [23]: 100%
residual activity [24]: 100%
residual activity [25]: 100%
residual activity [26]: 100%
residual activity [27]: 93%
residual activity [28]: 100%
residual activity [29]: 100%
residual activity [30]: 79%
residual activity [31]: 100%
residual activity [32]: 100%
residual activity [33]: 88%
residual activity [34]: 100%
residual activity [35]: 100%
residual activity [36]: 100%
residual activity [37]: 100%
residual activity [38]: 100%
residual activity [39]: 100%
residual activity [40]: 100%
residual activity [41]: 97%
residual activity [42]: 100%
inhibition [43]: 88.6%
inhibition [44]: 99.7%
inhibition [45]: 18.2%
